In the NIST ThermoML archive (doi:10.1016/j.jct.2017.05.001):

Experiment: wn = mass fraction of the nth substance listed
Conditions: Liquid; for mass density: Vibrating tube method

CN(C)CCO [2-(N,N-dimethylamino)ethanol] + O
Conditions	viscosity [mPa·s]
313.15 K, 30000 kPa, Falling or rolling sphere viscometry, w1 = 0.202	1.412
313.15 K, 30000 kPa, Falling or rolling sphere viscometry, w1 = 0.3005	2.161
313.15 K, 30000 kPa, Falling or rolling sphere viscometry, w1 = 0.3995	3.253
313.15 K, 40000 kPa, Falling or rolling sphere viscometry, w1 = 0.1005	0.957
313.15 K, 40000 kPa, Falling or rolling sphere viscometry, w1 = 0.202	1.423
313.15 K, 40000 kPa, Falling or rolling sphere viscometry, w1 = 0.3005	2.197
313.15 K, 40000 kPa, Falling or rolling sphere viscometry, w1 = 0.3995	3.342
313.15 K, 60000 kPa, Falling or rolling sphere viscometry, w1 = 0.1005	0.9672
313.15 K, 60000 kPa, Falling or rolling sphere viscometry, w1 = 0.202	1.45
313.15 K, 60000 kPa, Falling or rolling sphere viscometry, w1 = 0.3005	2.273
313.15 K, 60000 kPa, Falling or rolling sphere viscometry, w1 = 0.3995	3.519
313.15 K, 80000 kPa, Falling or rolling sphere viscometry, w1 = 0.1005	0.9775
313.15 K, 80000 kPa, Falling or rolling sphere viscometry, w1 = 0.202	1.479
313.15 K, 80000 kPa, Falling or rolling sphere viscometry, w1 = 0.3005	2.348
313.15 K, 80000 kPa, Falling or rolling sphere viscometry, w1 = 0.3995	3.698
313.15 K, 100000 kPa, Falling or rolling sphere viscometry, w1 = 0.1005	0.9881
313.15 K, 100000 kPa, Falling or rolling sphere viscometry, w1 = 0.202	1.508
313.15 K, 100000 kPa, Falling or rolling sphere viscometry, w1 = 0.3005	2.424
313.15 K, 100000 kPa, Falling or rolling sphere viscometry, w1 = 0.3995	3.881
333.15 K, 100 kPa, Concentric cylinders viscometry, w1 = 0.1	0.623
333.15 K, 100 kPa, Concentric cylinders viscometry, w1 = 0.2	0.888
333.15 K, 100 kPa, Concentric cylinders viscometry, w1 = 0.3	1.226
333.15 K, 100 kPa, Concentric cylinders viscometry, w1 = 0.4	1.671
333.15 K, 100 kPa, Falling or rolling sphere viscometry, w1 = 0.1005	0.6336
333.15 K, 100 kPa, Falling or rolling sphere viscometry, w1 = 0.202	0.8725
333.15 K, 100 kPa, Falling or rolling sphere viscometry, w1 = 0.3005	1.217
333.15 K, 100 kPa, Falling or rolling sphere viscometry, w1 = 0.3995	1.651
333.15 K, 5000 kPa, Falling or rolling sphere viscometry, w1 = 0.1005	0.6341
333.15 K, 5000 kPa, Falling or rolling sphere viscometry, w1 = 0.202	0.877
333.15 K, 5000 kPa, Falling or rolling sphere viscometry, w1 = 0.3005	1.223

mass density [kg/m3]
Conditions	w1 = 0.1005	w1 = 0.202	w1 = 0.3005	w1 = 0.3995
313.15 K, 30000 kPa	999.4	994.8	990.3	984.4
313.15 K, 40000 kPa	1003.4	998.6	994	988.2
313.15 K, 50000 kPa	1007	1002.1	997.5	991.7
313.15 K, 60000 kPa	1010.8	1005.6	1001	995.3
313.15 K, 70000 kPa	1014.5	1009.1	1004.4	998.7
313.15 K, 80000 kPa	1018	1012.5	1007.6	1002
313.15 K, 90000 kPa	1021.4	1015.7	1010.9	1005.3
313.15 K, 100000 kPa	1024.9	1019.1	1014.1	1008.5
313.15 K, 110000 kPa	1028.3	1022.3	1017.3	1011.7
313.15 K, 120000 kPa	1031.6	1025.6	1020.4	1014.7
313.15 K, 130000 kPa	1035	1028.6	1023.4	1017.7
313.15 K, 140000 kPa	1038.2	1031.7	1026.4	1020.7
333.15 K, 100 kPa	977.4	971.5	965.2	957.4
333.15 K, 500 kPa	977.6	971.8	965.4	957.6
333.15 K, 1000 kPa	977.8	972	965.6	957.9
333.15 K, 2000 kPa	978.2	972.4	966.1	958.3
